Experimental data as given in patent US20200038486A1, “THERAPEUTIC MEDICINE FOR FIBROUS DISEASE” (StemRIM Inc., priority 2017, published 2020).
Where no end group is shown, it is not given here.

Tested on: 129SV/colVII homo mice (epidermolysis bullosa model mice)
Assay: Forelimb finger adhesion in epidermolysis bullosa model mice
Format: in vivo
Details: from the start of treatment to Week 8

## MGKGDPKKPRGKMSSYAFFVQTCREEHKKKHPDASVNFSEFSKK [HMGB1 peptide (1-44)]
  body weight compared with the vehicle group: no significant difference between the groups
